These results are taken from patent publication US20260226031A1, “NOVEL COMPOUNDS” (NRG THERAPEUTICS LTD., priority 2023, published 2026).

The subject of experiment [1] is mPTP. The experiment in a line: mPTP activity (Ca2+ retention) assay in isolated rat brain mitochondria. The format is biochemical. The conditions noted are these: isolated rat brain mitochondria; Fluo5N fluorescence at 10 min after Ca2+ (75 μM) bolus. The procedure:
MPTP activity was measured in brain mitochondria freshly isolated from female Sprague Dawley (250 to 300 gram) rats. Anaesthetised rats were perfused in-situ with ~40 ml cold Dulbecco's Phosphate Buffered Saline (DPBS), then brains dissected and transferred into 30 ml Isolation Buffer (225 mM mannitol, 75 mM sucrose, 1 mM EGTA, adjusted to pH 7.4 with 1M NaOH). The brain was minced using tweezers and a scalpel into ~5 mm pieces then transferred into a 50 ml Potterton Dounce homogenization tube on ice containing 10 ml ice-cold isolation buffer (as above with addition of Complete Protease inhibitor; 1 tablet per 50 ml buffer). Homogenisation was carried out using a Teflon® pestle at 1800 rpm. The slurry was centrifuged at 2000 g for 10 min at 4° C., then the supernatant centrifuged at 12,000 g for 9 min. The pellet was resuspended with a dounce homogeniser in isolation buffer as above but with the addition of 0.02% digitonin, centrifuged at 12,000 g for 11 min and finally resuspended in 5 ml modified isolation buffer (as above but with EGTA reduced to 0.1 mM).
Test compounds were prepared in 384 well polypropylene assay plates as described above for the liver mitochondria assay. A stock mitochondria/Fluo5N assay solution was prepared in 5.6 ml assay buffer (120 mM mannitol, 40 mM MOPS, 5 mM KH2PO4, 60 mM KCl, 10 mM pyruvate, 2 mM malate, 2 mM MgCl2, 20 μM ADP, 1.26 μM oligomycin A, adjusted to pH 7.4) supplemented with Fluo5N pentapotassium salt (2 μM) and 1 ml mitochondria suspension, then transferred (15 μl) into the assay plate containing test compounds and incubated for 10 min at RT. Assay plates were then transferred to a FLIPR Tetra plate reader (Molecular Devices). Dye fluorescence was then measured every 3 sec for a total of 10 min.

Experiment [2] has as its system mPTP. The experiment in a line: mPTP activity (Ca2+ retention) assay in isolated rat liver mitochondria. The format is biochemical. The conditions noted are these: for mPTP Rat liver pIC50*: isolated rat liver mitochondria, Fluo5N fluorescence at 10 min after CaCl2 (75 μM) bolus, DMSO 0%, 5 μM cyclosporin A 100% inhibition. From the text:
Pharmacological inhibition or modulation of the mPTP can be measured in well characterised ‘Ca^2+ retention’ assays performed in isolated mitochondria. In vitro, isolated mitochondria rapidly sequester exogenous Ca^2+ until the intramitochondrial Ca^2+ concentration reaches the threshold for mPTP activation. Once the pore is activated, mitochondrial integrity is compromised and the stored Ca^2+ is released. The distribution of Ca^2+ between extra- and intra-mitochondrial compartments can be measured in real time with the use of membrane-impermeant Ca^2+ sensitive fluorescent dyes. Depending on the configuration of the assay, inhibition or modulation of the mPTP either delays the opening of the pore or increases the concentration of Ca^2+ required to induce mPTP opening.
MPTP activity was measured in mitochondria freshly isolated from female Sprague Dawley (250 to 300 gram) rat livers using the following method. Cervical dislocation was performed on the rat. The liver was then perfused in-situ with ~40 ml cold Dulbecco's Phosphate Buffered Saline (DPBS) prior to dissection and transferred into 30 ml Isolation Buffer (250 mM Sucrose, 10 mM KCl, 1 mM EGTA, 1 mM EDTA, 25 mM HEPES, adjusted to pH 7.5 with 1M NaOH). Each lobe of the liver was then removed from the buffer, minced using tweezers and a scalpel into ~5 mm pieces then transferred into a 50 ml Potterton dounce homogenization tube on ice containing 30 ml ice-cold centrifugation buffer (300 mM Trehalose, 25 mM HEPES, 1 mM EGTA, 1 mM EDTA, 10 mM KCl, adjusted to pH 7.5 with 1M NaOH and supplemented with 0.1% bovine serum albumin (BSA) and complete protease inhibitor cocktail (one tablet of inhibitor per 50 mls of buffer). Homogenisation was carried out using a Teflon® pestle at 1800 rpm. The slurry was centrifuged at 800 g for 10 min at 4° C., then the supernatant centrifuged at 10,000 g for 10 min. The pellet was washed once with FLIPR assay buffer (75 mM Mannitol, 25 mM Sucrose, 5 mM Potassium Phosphate Monobasic, 20 mM Tris base, 100 mM KCl, 0.1% BSA adjusted to pH 7.4 with 5M HCl) centrifuged again, then resuspended in FLIPR assay buffer to a concentration of 8.8 mg/ml protein.
Tested compounds (10 mM stock in DMSO) were serially diluted in DMSO in half log steps to generate 10 test concentrations (final concentrations in assay 30 μM to 1 nM). An intermediate dilution of 5 μl DMSO samples into 247 μl FLIPR assay buffer was carried out prior to transfer of 5 μl into duplicate wells of a 384 well polypropylene assay plate. Control wells were 0.5% (v/v) DMSO and 5 μM cyclosporin A.
A stock mitochondria/Fluo5N assay solution was prepared in 5.6 ml FLIPR assay buffer (at RT) supplemented with succinate disodium salt (10 mM), rotenone (1 μM), Fluo5N pentapotassium salt (2 μM) and 1 ml mitochondria suspension, then transferred (15 μl) into the assay plate containing test compounds and incubated for 10 min at RT. Assay plates were processed for fluorescence detection on either a FLIPR Tetra (Molecular Devices) or CLARIOstar (BMG) plate reader. For kinetic fluorescence detection on the FLIPR, dye fluorescence was measured every 3 sec for a total of 10 min. After 12 sec, a 2.5 μl bolus of CaCl2 (75 μM) was added from a source plate containing 675 μM CaCl2 in FLIPR assay buffer. Alternatively, the 2.5 μl addition of CaCl2 was performed using a Viaflow 384, plates were incubated at RT for 10 min, and dye fluorescence measured after 10 min on the CLARIOstar plate reader. pIC50 values for tested compounds were calculated using the fluorescence value collected at the 10 min timepoint on either plate reader, with % inhibition calculated using the DMSO control and cyclosporin A values as 0 and 100% respectively.

Regarding `O=C(c1noc(=O)[nH]1)N1CC(c2ccccc2)C2(CCC2)C1` (single isomer, unassigned) [Example 34b, 3-(8-phenyl-6-azaspiro[3.4]octane-6-carbonyl)-1,2,4-oxadiazol-5(4H)-one], the “mPTP Rat brain pIC50” value in the experiment on mPTP [1] was less than 4.52. In addition, the “mPTP Rat liver pIC50*” value with mPTP [2] is given as less than 4.52.

As for `O=C(c1cncc(O)n1)N1CC(c2ccccc2)C2(CCC2)C1` (stereo not drawn) [Example 2, (6-hydroxypyrazin-2-yl)(8-phenyl-6-azaspiro[3.4]octan-6-yl)methanone], in the experiment with mPTP [1], the “mPTP Rat brain pIC50” value was determined as 6.90. In addition, the “mPTP Rat liver pIC50*” value in the experiment on mPTP [2] amounted to 5.80.

Consider `O=C(c1cncc(O)n1)N1CC(c2ccccc2)C2(CCC2)C1` (single isomer, unassigned) [Example 6a, (6-hydroxypyrazin-2-yl)(8-phenyl-6-azaspiro[3.4]octan-6-yl)methanone], for which, in the experiment with mPTP [1], the “mPTP Rat brain pIC50” value came out at 7.34. The “mPTP Rat liver pIC50*” value in the experiment on mPTP [2] is reported as 6.39.

Regarding `O=C(c1cncc(=O)[nH]1)N1CC(c2ccccc2F)C2(CCC2)C1` (stereo not drawn) [Example 7, 6-(8-(2-fluorophenyl)-6-azaspiro[3.4]octane-6-carbonyl)pyrazin-2(1H)-one], the “mPTP Rat brain pIC50” value in the experiment on mPTP [1] worked out at 7.11. The “mPTP Rat liver pIC50*” value in the experiment on mPTP [2] is listed as 5.95.

On to `CCC1CN(C(=O)c2cncc(=O)[nH]2)CC1c1ccccc1` (single isomer, unassigned) [Example 15b, 6-(3-ethyl-4-phenylpyrrolidine-1-carbonyl)pyrazin-2(1H)-one], for which the “mPTP Rat brain pIC50” value with mPTP [1] is 4.81. The “mPTP Rat liver pIC50*” value in the experiment with mPTP [2] was less than 4.52.

As to `O=C(c1cncc(=O)[nH]1)N1CC(c2ccccc2Cl)C2(CCC2)C1` (single isomer, unassigned) [Example 30b, 6-(8-(2-chlorophenyl)-6-azaspiro[3.4]octane-6-carbonyl)pyrazin-2(1H)-one], the “mPTP Rat brain pIC50” value in the experiment on mPTP [1] is recorded as less than 4.52. The “mPTP Rat liver pIC50*” value in the experiment on mPTP [2] is listed as less than 4.52.

Take `CC1(C)CN(C(=O)c2cncc(O)c2)CC1c1ccccc1` (stereo not drawn) [Example 4, (3,3-dimethyl-4-phenylpyrrolidin-1-yl)(5-hydroxypyridin-3-yl)methanone]: the “mPTP Rat brain pIC50” value with mPTP [1] is 6.22. Further, the “mPTP Rat liver pIC50*” value with mPTP [2] came out at 5.47.

Consider `O=C(c1cncc(=O)[nH]1)N1CC(c2cccc(F)c2)C2(CCC2)C1` (single isomer, unassigned) [Example 40a, 6-(8-(3-fluorophenyl)-6-azaspiro[3.4]octane-6-carbonyl)pyrazin-2(1H)-one], for which the “mPTP Rat brain pIC50” value in the experiment on mPTP [1] was found to be 7.34. Further, in the experiment on mPTP [2], the “mPTP Rat liver pIC50*” value worked out at 6.55.

Consider `CC1(C)CN(C(=O)c2cncc(=O)[nH]2)CC1c1ccccc1` (single isomer, unassigned) [Example 10a, 6-(3,3-dimethyl-4-phenylpyrrolidine-1-carbonyl)pyrazin-2(1H)-one], for which the “mPTP Rat brain pIC50” value in the experiment with mPTP [1] is reported as 7.03. For the same compound, the “mPTP Rat liver pIC50*” value in the experiment on mPTP [2] is given as 6.18.

Take `O=C(c1cncc(=O)[nH]1)N1CC(c2cccc(F)c2F)C2(CCC2)C1` (single isomer, unassigned) [Example 43a, 6-(8-(2,3-difluorophenyl)-6-azaspiro[3.4]octane-6-carbonyl)pyrazin-2(1H)-one]: the “mPTP Rat brain pIC50” value in the experiment with mPTP [1] is given as 7.43. In the experiment on mPTP [2], the “mPTP Rat liver pIC50*” value stood at 6.56.

`O=C(c1cc(O)no1)N1CC(c2ccc(F)cc2)C2(CCC2)C1` (single isomer, unassigned) [Example 36b, (8-(4-fluorophenyl)-6-azaspiro[3.4]octan-6-yl)(3-hydroxyisoxazol-5-yl)methanone]: the “mPTP Rat brain pIC50” value in the experiment on mPTP [1] is less than 4.52. Moreover, the “mPTP Rat liver pIC50*” value in the experiment with mPTP [2] is reported as less than 4.52.

For the compound `O=C(c1cncc(=O)[nH]1)N1CC(c2ccc(Cl)cc2)C2(CCC2)C1` (single isomer, unassigned) [Example 16a, 6-[8-(4-Chlorophenyl)-6-azaspiro[3.4]octane-6-carbonyl]-1H-pyrazin-2-one], the “mPTP Rat brain pIC50” value with mPTP [1] turned out to be 6.39. Besides, the “mPTP Rat liver pIC50*” value with mPTP [2] is given as 5.58.

Consider `O=C(c1nccc(=O)[nH]1)N1CC(c2ccccc2)C2(CCC2)C1` (single isomer, unassigned) [Example 21a, 2-[8-phenyl-6-azaspiro[3.4]octane-6-carbonyl]-3H-pyrimidin-4-one], for which, in the experiment with mPTP [1], the “mPTP Rat brain pIC50” value stood at 6.98. Further, the “mPTP Rat liver pIC50*” value in the experiment on mPTP [2] turned out to be 5.94.

As for `O=C(c1ccnc(=O)[nH]1)N1CC(c2ccccc2)C2(CCC2)C1` (single isomer, unassigned) [Example 27b, 6-(8-phenyl-6-azaspiro[3.4]octane-6-carbonyl)pyrimidin-2(1H)-one], the “mPTP Rat brain pIC50” value in the experiment on mPTP [1] is reported as less than 4.52. In the experiment on mPTP [2], the “mPTP Rat liver pIC50*” value is less than 4.52.

Turning to `O=C(c1cncc(=O)[nH]1)N1CC(c2cccc(Cl)c2F)C2(CCC2)C1` (single isomer, unassigned) [Example 33a, 6-(8-(3-chloro-2-fluorophenyl)-6-azaspiro[3.4]octane-6-carbonyl)pyrazin-2(1H)-one], the “mPTP Rat brain pIC50” value in the experiment on mPTP [1] is reported as 7.32. For the same compound, in the experiment on mPTP [2], the “mPTP Rat liver pIC50*” value came to 5.77.

Take `O=C(c1cc(O)no1)N1CC(c2cccc(F)c2F)C2(CCC2)C1` (single isomer, unassigned) [Example 39a, (8-(2,3-difluorophenyl)-6-azaspiro[3.4]octan-6-yl)(3-hydroxyisoxazol-5-yl)methanone]: the “mPTP Rat brain pIC50” value with mPTP [1] amounted to 7.41. Further, the “mPTP Rat liver pIC50*” value in the experiment on mPTP [2] is 6.47.

As for `COc1ccc(C2CN(C(=O)c3cncc(=O)[nH]3)CC23CCC3)cc1` (single isomer, unassigned) [Example 28a, 6-(8-(4-methoxyphenyl)-6-azaspiro[3.4]octane-6-carbonyl)pyrazin-2(1H)-one], the “mPTP Rat brain pIC50” value in the experiment with mPTP [1] stood at 5.69. For the same compound, the “mPTP Rat liver pIC50*” value in the experiment on mPTP [2] worked out at 5.17.

As to `CC1(C)CN(C(=O)c2cncc(=O)[nH]2)CC1c1ccccc1` (single isomer, unassigned) [Example 10b, 6-(3,3-dimethyl-4-phenylpyrrolidine-1-carbonyl)pyrazin-2(1H)-one], the “mPTP Rat brain pIC50” value in the experiment with mPTP [1] came to 6.07. Besides, in the experiment on mPTP [2], the “mPTP Rat liver pIC50*” value was found to be 5.19.

As for `O=C(c1cncc(=O)[nH]1)N1CC(c2ccc(F)cc2)C2(CCC2)C1` (single isomer, unassigned) [Example 35a, 6-(8-(4-fluorophenyl)-6-azaspiro[3.4]octane-6-carbonyl)pyrazin-2(1H)-one], the “mPTP Rat brain pIC50” value with mPTP [1] came out at 7.5. Further, the “activity in the rat liver mitochondria assay (ranking in words)” value in the experiment on mPTP [2] (among tested Example compounds) was “highest activity”. In the experiment with mPTP [2], the “mPTP Rat liver pIC50*” value was determined as 6.82.
